# Active and inactive are the calls of the source. The calls are words filed in the database; no cut-off is given here.
# Legend:
# Raji [1] = assay: Induction of cell cycle arrest in human Raji cells assessed as accumulation of cells at G0/G1 phase at 5 uM incubated for 48 hrs by PI staining based flow cytometry analysis (reference value: 20.16%); assay type: functional
# Daudi [2] = assay: Induction of cell cycle arrest at G0/G1 phase in human Daudi cells assessed as downregulation of CDK4 protein expression at 0.75 to 3 uM incubated for 24 to 48 hrs by Western blot analysis; assay type: functional, cell-based; conditions: dose 0.75-3 µM, time 24-48 hrs
# Daudi [3] = assay: Induction of cell cycle arrest at G0/G1 phase in human Daudi cells assessed as downregulation of Cyclin E1 protein expression at 0.75 to 3 uM incubated for 24 to 48 hrs by Western blot analysis; assay type: functional, cell-based; conditions: dose 0.75-3 µM, time 24-48 hrs
# Daudi [4] = assay: Induction of cell cycle arrest at G0/G1 phase in human Daudi cells assessed as upregulation of gamma-H2AX protein expression at 0.75 to 3 uM incubated for 24 to 48 hrs by Western blot analysis; assay type: functional, cell-based; conditions: dose 0.75-3 µM, time 24-48 hrs
# Daudi [5] = assay: Induction of cell cycle arrest in human Daudi cells assessed as S phase cells at 3 uM incubated for 24 hrs by PI staining based flow cytometry analysis (reference value: 49.79%); assay type: functional
# Daudi [6] = assay: Induction of apoptosis in human Daudi cells assessed as upregulation of cleaved PARP expression at 0.75 to 3 uM incubated for 24 hrs by Western blot analysis; assay type: functional, cell-based; conditions: dose 0.75-3 µM
# Daudi [7] = assay: Induction of apoptosis in human Daudi cells assessed as downregulation of Bcl-xl expression at 0.75 to 3 uM incubated for 24 hrs by Western blot analysis; assay type: functional, cell-based; conditions: dose 0.75-3 µM
# Daudi [8] = assay: Induction of apoptosis in human Daudi cells assessed as effect on caspase-8 protein expression at 0.75 to 3 uM incubated for 24 hrs by Western blot analysis; assay type: functional, cell-based; conditions: dose 0.75-3 µM
# Daudi [9] = assay: Induction of apoptosis in human Daudi cells assessed as effect on cleaved caspase-8 protein expression at 0.75 to 3 uM incubated for 24 hrs by Western blot analysis; assay type: functional, cell-based; conditions: dose 0.75-3 µM
# Raji [10] = assay: Induction of apoptosis in human Raji cells assessed as upregulation of cleaved caspase-9 expression at 1.25 to 5 uM incubated for 24 hrs by Western blot analysis; assay type: functional, cell-based; conditions: dose 1.25-5 µM
# Raji [11] = assay: Induction of mitochondrial dysfunction in human Raji cells assessed as decrease in ATP-5J protein expression at 2.5 to 5 uM incubated for 48 hrs by Western blot analysis; assay type: functional, cell-based; conditions: dose 2.5-5 µM
# Daudi [12] = assay: Induction of mitochondrial respiratory chain damage in human Daudi cells assessed as decrease in NDUFV2 protein expression at 1.5 to 3 uM incubated for 48 hrs by Western blot analysis; assay type: functional, cell-based; conditions: dose 1.5-3 µM
# [13] = Inhibition of PI3K/AKT/mTOR signalling pathway in human Daudi cells assessed as inhibition of PI3K phosphorylation incubated for 24 hrs by Western blot analysis; assay type: cell-based; conditions: dose 0.75-3 µM
# Raji [14] = assay: Downregulation of c-Myc expression level in human Raji cells incubated for 24 hrs by Western blot analysis; assay type: functional, cell-based; conditions: dose 1.25-5 µM
# [15] = Inhibition of PI3K/AKT/mTOR signalling pathway in human Raji cells assessed as increase in ratio of mTOR phosphorylation to total mTOR protein level at 5 uM incubated for 12 hrs in the presence of YS49 by Western blot analysis; assay type: cell-based
# Daudi [16] = assay: Induction of apoptosis in human Daudi cells assessed as viable cells at 3 uM incubated for 24 hrs by Annexin V-FITC/PI staining based flow cytometric analysis (reference value: 97.2%); assay type: functional; conditions: read-out: Activity
# Daudi [17] = assay: Induction of apoptosis in human Daudi cells assessed as early apoptotic cells at 3 uM incubated for 24 hrs in the presence of YS49 by Annexin V-FITC/PI staining based flow cytometric analysis (reference value: 1.7%); assay type: functional
# Daudi [18] = assay: Induction of apoptosis in human Daudi cells assessed as necrotic cells at 3 uM incubated for 24 hrs in the presence of YS49 by Annexin V-FITC/PI staining based flow cytometric analysis (reference value: 1.0%); assay type: functional
# Raji [19] = assay: Induction of apoptosis in human Raji cells assessed as viable cells at 5 uM incubated for 24 hrs by Annexin V-FITC/PI staining based flow cytometric analysis (reference value: 97.8%); assay type: functional; conditions: read-out: Activity
# Raji [20] = assay: Induction of apoptosis in human Raji cells assessed as early apoptotic cells at 5 uM incubated for 24 hrs in the presence of YS49 by Annexin V-FITC/PI staining based flow cytometric analysis (reference value: 0.8%); assay type: functional
# Raji [21] = assay: Induction of apoptosis in human Raji cells assessed as necrotic cells at 5 uM incubated for 24 hrs in the presence of YS49 by Annexin V-FITC/PI staining based flow cytometric analysis (reference value: 1.5%); assay type: functional
compound,measurement,setting,value
COc1c(OC)c2c3c(nccc3c1-c1cc(C)cc(C)c1)C(c1cc(C)cc(C)c1)=CN2,Activity,Raji [1],40.65%
same,Activity,Daudi [2],Active
same,Activity,Daudi [3],Active
same,Activity,Daudi [4],Active
same,Activity,Daudi [5],30.03%
same,Activity,Daudi [6],Active
same,Activity,Daudi [7],Active
same,Activity,Daudi [8],inactive
same,Activity,Daudi [9],inactive
same,Activity,Raji [10],Active
same,Activity,Raji [11],Active
same,Activity,Daudi [12],Active
same,inhibition,[13],Dose-Dependent Effect
same,Activity,Raji [14],Dose-Dependent Effect
same,inhibition,[15],inactive
same,viability at 3 µM,Daudi [16],72.7%
same,Activity,Daudi [17],16.7%
same,Activity,Daudi [18],1.7%
same,viability at 5 µM,Raji [19],56.2%
same,Activity,Raji [20],11.2%
same,Activity,Raji [21],20.8%
